Activity calls are given as the source filed them. No cut-off for these calls is given here.
What was measured:
Triticum aestivum [1] = assay: Toxicity against Winter Triticum aestivum (wheat) cultivar Dongmai 12 assessed as spike numbers at 900 g ai/h applied at 2-tillering stage of crop in winter (reference value: 482.4/m'2); format: organism-based; settings: in vivo, other
Triticum aestivum [2] = assay: Toxicity against Winter Triticum aestivum (wheat) cultivar Dongmai 12 assessed as plant height at 450 g ai/h applied at late tillering stage of crop in spring (reference value: 72.7 cm); format: organism-based; settings: in vivo, other
Descurainia sophia [3] = assay: Herbicidal activity against Descurainia sophia in Wheat cultivar lifeng 703 field assessed as decrease in biomass applied during late tillering stage of winter wheat at 525 g ai/h measured after 45 days under field trials; format: functional, organism-based
Triticum aestivum [4] = assay: Toxicity against Winter Triticum aestivum (wheat) cultivar Dongmai 12 assessed as 1000-grain weight at 450 g ai/h applied at 3-leaf stage of crop (reference value: 42.6 gms); format: organism-based; settings: in vivo, other
Triticum aestivum [5] = assay: Toxicity against Winter Triticum aestivum (wheat) cultivar Dongmai 12 assessed as spike numbers at 900 g ai/h applied at 3-leaf stage of crop (reference value: 482.4/m'2); format: organism-based; settings: in vivo, other
Triticum aestivum [6] = assay: Toxicity against Winter Triticum aestivum (wheat) cultivar Dongmai 12 assessed as plant height at 225 g ai/h applied at 2-tillering stage of crop in winter (reference value: 72.7 cm); format: organism-based; settings: in vivo, other
Triticum aestivum [7] = assay: Toxicity against Winter Triticum aestivum (wheat) cultivar Dongmai 12 assessed as plant height at 225 g ai/h applied at late tillering stage of crop in spring (reference value: 72.7 cm); format: organism-based; settings: in vivo, other
Triticum aestivum [8] = assay: Toxicity against Winter Triticum aestivum (wheat) cultivar Dongmai 12 assessed as plant height at 225 g ai/h applied at booting stage of crop (reference value: 72.7 cm); format: organism-based; settings: in vivo, other
Capsella bursa-pastoris [9] = assay: Herbicidal activity against Capsella bursa-pastoris in wheat cultivar Dongmai 12 field assessed as decrease in plant number applied during late tillering stage of winter wheatat 525 g ai/h measured after 45 days under field trials; format: functional, organism-based
Triticum aestivum [10] = assay: Toxicity against Winter Triticum aestivum (wheat) cultivar Dongmai 12 assessed as plant height at 900 g ai/h applied at late tillering stage of crop in spring (reference value: 72.7 cm); format: organism-based; settings: in vivo, other
Triticum aestivum [11] = assay: Toxicity against Winter Triticum aestivum (wheat) cultivar Dongmai 12 assessed as spike numbers at 450 g ai/h applied at 3-leaf stage of crop (reference value: 482.4/m'2); format: organism-based; settings: in vivo, other
Triticum aestivum [12] = assay: Toxicity against Winter Triticum aestivum (wheat) cultivar Dongmai 12 assessed as plant height at 450 g ai/h applied at 2-tillering stage of crop in winter (reference value: 72.7 cm); format: organism-based; settings: in vivo, other
Triticum aestivum [13] = assay: Toxicity against Winter Triticum aestivum (wheat) cultivar Dongmai 12 assessed as spike numbers at 450 g ai/h applied at 2-tillering stage of crop in winter (reference value: 482.4/m'2); format: organism-based; settings: in vivo, other
Triticum aestivum [14] = assay: Toxicity against Winter Triticum aestivum (wheat) cultivar Dongmai 12 assessed as spike numbers at 225 g ai/h applied at 2-tillering stage of crop in winter (reference value: 482.4/m'2); format: organism-based; settings: in vivo, other
Triticum aestivum [15] = assay: Toxicity against Winter Triticum aestivum (wheat) cultivar Dongmai 12 assessed as 1000-grain weight at 450 g ai/h applied at 2-tillering stage of crop in winter (reference value: 42.6 g); format: organism-based; settings: in vivo, other
Triticum aestivum [16] = assay: Toxicity against Winter Triticum aestivum (wheat) cultivar Dongmai 12 assessed as 1000-grain weight at 900 g ai/h applied at late tillering stage of crop in spring (reference value: 42.6 g); format: organism-based; settings: in vivo, other
Triticum aestivum [17] = assay: Toxicity against Winter Triticum aestivum (wheat) cultivar Dongmai 12 assessed as 1000-grain weight at 225 g ai/h applied at booting stage of crop (reference value: 42.6 g); format: organism-based; settings: in vivo, other
Descurainia sophia [18] = assay: Herbicidal activity against Descurainia sophia in Wheat cultivar Dongmai 12 field assessed as decrease in plant number applied during late tillering stage of winter wheat at 525 g ai/h measured after 45 days under field trials; format: functional, organism-based
Triticum aestivum [19] = assay: Toxicity against Winter Triticum aestivum (wheat) cultivar Dongmai 12 assessed as spike numbers at 900 g ai/h applied at late tillering stage of crop in spring (reference value: 482.4/m'2); format: organism-based; settings: in vivo, other
Capsella bursa-pastoris [20] = assay: Herbicidal activity against Capsella bursa-pastoris in wheat cultivar Dongmai 12 field assessed as decrease in biomass applied during late tillering stage of winter wheatat 525 g ai/h measured after 45 days under field trials; format: functional, organism-based
Capsella bursa-pastoris [21] = assay: Herbicidal activity against Capsella bursa-pastoris in wheat cultivar lifeng 703 field assessed as decrease in biomass applied during late tillering stage of winter wheatat 525 g ai/h measured after 45 days under field trials; format: functional, organism-based
Descurainia sophia [22] = assay: Herbicidal activity against Descurainia sophia in Wheat cultivar Dongmai 12 field assessed as decrease in biomass applied during late tillering stage of winter wheat at 525 g ai/h measured after 45 days under field trials; format: functional, organism-based
Descurainia sophia [23] = assay: Herbicidal activity against Descurainia sophia assessed as decrease in biomass treated at 4-5 leaf stage measured after 14 days under greenhouse trials; format: functional
Triticum aestivum [24] = assay: Toxicity against Winter Triticum aestivum (wheat) cultivar Dongmai 12 assessed as spike numbers at 450 g ai/h applied at booting stage of crop (reference value: 482.4/m'2); format: organism-based; settings: in vivo, other
Triticum aestivum [25] = assay: Toxicity against Winter Triticum aestivum (wheat) cultivar Dongmai 12 assessed as plant height at 900 g ai/h applied at 2-tillering stage of crop in winter (reference value: 72.7 cm); format: organism-based; settings: in vivo, other
Triticum aestivum [26] = assay: Toxicity against Winter Triticum aestivum (wheat) cultivar Dongmai 12 assessed as 1000-grain weight at 450 g ai/h applied at late tillering stage of crop in spring (reference value: 42.6 g); format: organism-based; settings: in vivo, other
Triticum aestivum [27] = assay: Toxicity against Winter Triticum aestivum (wheat) cultivar Dongmai 12 assessed as spike numbers at 450 g ai/h applied at late tillering stage of crop in spring (reference value: 482.4/m'2); format: organism-based; settings: in vivo, other
Amaranthus retroflexus = assay: Herbicidal activity against Amaranthus retroflexus assessed as decrease in biomass treated at 4-5 leaf stage measured after 14 days under greenhouse trials; format: functional
Myosoton aquaticum = assay: Herbicidal activity against Myosoton aquaticum assessed as decrease in biomass treated at four to five-leaf stage measured after 14 days under greenhouse trials; format: functional
Triticum aestivum [28] = assay: Toxicity against Winter Triticum aestivum (wheat) cultivar Dongmai 12 assessed as 1000-grain weight at 900 g ai/h applied at booting stage of crop (reference value: 42.6 g); format: organism-based; settings: in vivo, other
Descurainia sophia [29] = assay: Herbicidal activity against Descurainia sophia in Wheat cultivar lifeng 703 field assessed as decrease in plant number applied during late tillering stage of winter wheat at 525 g ai/h measured after 45 days under field trials; format: functional, organism-based
Triticum aestivum [30] = assay: Toxicity against Winter Triticum aestivum (wheat) cultivar Dongmai 12 assessed as plant height at 450 g ai/h applied at 3-leaf stage of crop (reference value: 72.7 cm); format: organism-based; settings: in vivo, other
Capsella bursa-pastoris [31] = assay: Herbicidal activity against Capsella bursa-pastoris in wheat cultivar lifeng 703 field assessed as decrease in plant number applied during late tillering stage of winter wheatat 525 g ai/h measured after 45 days under field trials; format: functional, organism-based
Triticum aestivum [32] = assay: Toxicity against Winter Triticum aestivum (wheat) cultivar Dongmai 12 assessed as 1000-grain weight at 225 g ai/h applied at late tillering stage of crop in spring (reference value: 42.6 g); format: organism-based; settings: in vivo, other
Triticum aestivum [33] = assay: Toxicity against Winter Triticum aestivum (wheat) cultivar Dongmai 12 assessed as 1000-grain weight at 225 g ai/h applied at 2-tillering stage of crop in winter (reference value: 42.6 g); format: organism-based; settings: in vivo, other
Triticum aestivum [34] = assay: Toxicity against Winter Triticum aestivum (wheat) cultivar Dongmai 12 assessed as spike numbers at 900 g ai/h applied at booting stage of crop (reference value: 482.4/m'2); format: organism-based; settings: in vivo, other
Triticum aestivum [35] = assay: Toxicity against Winter Triticum aestivum (wheat) cultivar Dongmai 12 assessed as spike numbers at 225 g ai/h applied at booting stage of crop (reference value: 482.4/m'2); format: organism-based; settings: in vivo, other
Triticum aestivum [36] = assay: Toxicity against Winter Triticum aestivum (wheat) cultivar Dongmai 12 assessed as spike numbers at 225 g ai/h applied at late tillering stage of crop in spring (reference value: 482.4/m'2); format: organism-based; settings: in vivo, other
Triticum aestivum [37] = assay: Toxicity against Winter Triticum aestivum (wheat) cultivar lifeng 703 assessed as grain yield at 525 g ai/h; format: organism-based; settings: in vivo
Triticum aestivum [38] = assay: Toxicity against Winter Triticum aestivum (wheat) cultivar Dongmai 12 assessed as plant height at 450 g ai/h applied at booting stage of crop (reference value: 72.7 cm); format: organism-based; settings: in vivo, other
Triticum aestivum [39] = assay: Toxicity against Winter Triticum aestivum (wheat) cultivar Dongmai 12 assessed as 1000-grain weight at 900 g ai/h applied at 2-tillering stage of crop in winter (reference value: 42.6 g); format: organism-based; settings: in vivo, other
Triticum aestivum [40] = assay: Toxicity against Winter Triticum aestivum (wheat) cultivar Dongmai 12 assessed as grain yield at 525 g ai/h; format: organism-based; settings: in vivo
Triticum aestivum [41] = assay: Toxicity against Winter Triticum aestivum (wheat) cultivar Dongmai 12 assessed as 1000-grain weight at 225 g ai/h applied at 3-leaf stage of crop (reference value: 42.6 gms); format: organism-based; settings: in vivo, other
Capsella bursa-pastoris [42] = assay: Herbicidal activity against Capsella bursa-pastoris assessed as decrease in biomass treated at 4-5 leaf stage measured after 14 days under greenhouse trials; format: functional
Triticum aestivum [43] = assay: Toxicity against Winter Triticum aestivum (wheat) cultivar lifeng 703 assessed as abnormal ear formation at 525 g ai/h; format: organism-based; settings: in vivo
Triticum aestivum [44] = assay: Toxicity against Winter Triticum aestivum (wheat) cultivar Dongmai 12 assessed as plant height at 225 g ai/h applied at 3-leaf stage of crop (reference value: 72.7 cm); format: organism-based; settings: in vivo, other
Triticum aestivum [45] = assay: Toxicity against Winter Triticum aestivum (wheat) cultivar Dongmai 12 assessed as 1000-grain weight at 450 g ai/h applied at booting stage of crop (reference value: 42.6 g); format: organism-based; settings: in vivo, other
Triticum aestivum [46] = assay: Toxicity against Winter Triticum aestivum (wheat) cultivar Dongmai 12 assessed as 1000-grain weight at 900 g ai/h applied at 3-leaf stage of crop (reference value: 42.6 g); format: organism-based; settings: in vivo, other
Triticum aestivum [47] = assay: Toxicity against Winter Triticum aestivum (wheat) cultivar Dongmai 12 assessed as abnormal ear formation at 525 g ai/h; format: organism-based; settings: in vivo
Triticum aestivum [48] = assay: Toxicity against Winter Triticum aestivum (wheat) cultivar Dongmai 12 assessed as plant height at 900 g ai/h applied at 3-leaf stage of crop (reference value: 72.7 cm); format: organism-based; settings: in vivo, other
Triticum aestivum [49] = assay: Toxicity against Winter Triticum aestivum (wheat) cultivar Dongmai 12 assessed as plant height at 900 g ai/h applied at booting stage of crop (reference value: 72.7 cm); format: organism-based; settings: in vivo, other
Triticum aestivum [50] = assay: Toxicity against Winter Triticum aestivum (wheat) cultivar Dongmai 12 assessed as spike numbers at 225 g ai/h applied at 3-leaf stage of crop (reference value: 482.4/m'2); format: organism-based; settings: in vivo, other

SMILES: O=C(O)COc1ccc(Cl)cc1Cl [2,4-DICHLOROPHENOXYACETIC ACID]
- Activity (Triticum aestivum [1]): 450 /m2
- Activity (Triticum aestivum [2]): 72 cm
- inhibition (Descurainia sophia [3]): Active
- Activity (Triticum aestivum [4]): 38.8 g
- Activity (Triticum aestivum [5]): 361.5 /m2
- Activity (Triticum aestivum [6]): 72 cm
- Activity (Triticum aestivum [7]): 73.2 cm
- Activity (Triticum aestivum [8]): 72 cm
- inhibition (Capsella bursa-pastoris [9]): Active
- Activity (Triticum aestivum [10]): 72.3 cm
- Activity (Triticum aestivum [11]): 366 /m2
- Activity (Triticum aestivum [12]): 71.9 cm
- Activity (Triticum aestivum [13]): 453 /m2
- Activity (Triticum aestivum [14]): 478.5 /m2
- Activity (Triticum aestivum [15]): 42.6 g
- Activity (Triticum aestivum [16]): 42.2 g
- Activity (Triticum aestivum [17]): 42.5 g
- inhibition (Descurainia sophia [18]): Active
- Activity (Triticum aestivum [19]): 480 /m2
- inhibition (Capsella bursa-pastoris [20]): Active
- inhibition (Capsella bursa-pastoris [21]): Active
- inhibition (Descurainia sophia [22]): Active
- ED50 (Descurainia sophia [23]): 23.9 gAi/ha
- Activity (Triticum aestivum [24]): 474 /m2
- Activity (Triticum aestivum [25]): 71.5 cm
- Activity (Triticum aestivum [26]): 42.2 g
- Activity (Triticum aestivum [27]): 480 /m2
- ED50 (Amaranthus retroflexus): 74.1 gAi/ha
- ED50 (Myosoton aquaticum): 60.2 gAi/ha
- Activity (Triticum aestivum [28]): 41.7 g
- inhibition (Descurainia sophia [29]): Active
- Activity (Triticum aestivum [30]): 66 cm
- inhibition (Capsella bursa-pastoris [31]): Active
- Activity (Triticum aestivum [32]): 42.4 g
- Activity (Triticum aestivum [33]): 42.6 g
- Activity (Triticum aestivum [34]): 474 /m2
- Activity (Triticum aestivum [35]): 484.5 /m2
- Activity (Triticum aestivum [36]): 484.5 /m2
- Activity (Triticum aestivum [37]): 8.2 tons/ha
- Activity (Triticum aestivum [38]): 71.5 cm
- Activity (Triticum aestivum [39]): 42.2 g
- Activity (Triticum aestivum [40]): 5.6 tons/ha
- Activity (Triticum aestivum [41]): 40.9 g
- ED50 (Capsella bursa-pastoris [42]): 75.4 gAi/ha
- Activity (Triticum aestivum [43]): Toxic
- Activity (Triticum aestivum [44]): 70.3 cm
- Activity (Triticum aestivum [45]): 42.5 g
- Activity (Triticum aestivum [46]): 37.5 g
- Activity (Triticum aestivum [47]): Non-toxic
- Activity (Triticum aestivum [48]): 61.6 cm
- Activity (Triticum aestivum [49]): 70.5 cm
- Activity (Triticum aestivum [50]): 406.5 /m2
